22 compounds from patent US20210300943A1, “OGA INHIBITOR COMPOUNDS” (Janssen Pharmaceutica NV, priority 2018, published 2021) can be followed below.

Experiment [1] has as its target T1, OGA (Homo sapiens, UniProt O60502).
T1 construct: endogenous in cells; host or cells: HEK293 cells inducible for P301L mutant human Tau (2N4R)
T1 sequence (O60502 1-916): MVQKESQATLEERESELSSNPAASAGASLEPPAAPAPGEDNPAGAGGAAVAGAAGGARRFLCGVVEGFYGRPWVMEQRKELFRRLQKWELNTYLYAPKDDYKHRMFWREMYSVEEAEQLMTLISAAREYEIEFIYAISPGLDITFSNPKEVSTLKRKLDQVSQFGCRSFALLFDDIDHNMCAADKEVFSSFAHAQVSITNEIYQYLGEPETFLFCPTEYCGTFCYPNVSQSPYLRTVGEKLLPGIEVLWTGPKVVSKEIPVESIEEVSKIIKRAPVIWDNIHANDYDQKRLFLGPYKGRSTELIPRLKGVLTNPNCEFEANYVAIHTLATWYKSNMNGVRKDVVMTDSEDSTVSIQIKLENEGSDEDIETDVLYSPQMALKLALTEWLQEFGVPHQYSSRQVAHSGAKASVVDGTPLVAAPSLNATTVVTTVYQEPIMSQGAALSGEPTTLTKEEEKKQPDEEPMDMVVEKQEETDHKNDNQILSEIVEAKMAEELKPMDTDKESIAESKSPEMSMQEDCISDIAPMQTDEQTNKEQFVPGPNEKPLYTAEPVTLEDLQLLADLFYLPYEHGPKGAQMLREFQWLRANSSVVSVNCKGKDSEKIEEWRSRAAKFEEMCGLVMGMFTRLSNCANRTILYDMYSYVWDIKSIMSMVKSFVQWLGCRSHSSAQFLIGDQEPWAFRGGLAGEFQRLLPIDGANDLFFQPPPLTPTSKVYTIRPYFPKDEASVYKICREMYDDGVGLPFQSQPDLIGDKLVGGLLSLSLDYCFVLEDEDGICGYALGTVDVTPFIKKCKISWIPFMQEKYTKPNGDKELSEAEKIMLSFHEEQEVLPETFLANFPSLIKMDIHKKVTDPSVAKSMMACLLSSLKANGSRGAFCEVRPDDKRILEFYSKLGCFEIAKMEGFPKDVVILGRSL
Put plainly: OGA cellular assay (ICC detection of O-GlcNAcylated proteins in HEK293 cells inducible for P301L mutant human Tau). Format: cell-based. Particulars: for Emax: HEK293, HEK293 cells inducible for P301L mutant human Tau; for Emax / Cellular Emax (%): maximal effect, Thiamet G 200 uM as maximum; for EC50 / Cellular Emax (%): HEK293 cells inducible for P301L mutant human Tau; for EC50: 6 hours incubation, read-out: Cellular hOGA, pEC50 (converted). The method, then:
HEK293 cells inducible for P301L mutant human Tau (isoform 2N4R) were established at Janssen. Thiamet-G was used for both plate validation (high control) and as reference compound (reference EC50 assay validation). OGA inhibition is evaluated through the immunocytochemical (ICC) detection of O-GlcNAcylated proteins by the use of a monoclonal antibody (CTD110.6; Cell Signaling, #9875) detecting 0-GlcNAcylated residues as previously described (Dorfmueller et al. 2010 Chemistry & biology, 17:1250). Inhibition of OGA will result in an increase of O-GlcNAcylated protein levels resulting in an increased signal in the experiment. Cell nuclei are stained with Hoechst to give a cell culture quality control and a rough estimate of immediate compounds toxicity, if any. ICC pictures are imaged with a Perkin Elmer Opera Phenix plate microscope and quantified with the provided software Perkin Elmer Harmony 4.1.
Cells were propagated in DMEM high Glucose (Sigma, #D5796) following standard procedures. 2 days before the cell assay cells are split, counted and seeded in Poly-D-Lysine (PDL) coated 96-wells (Greiner, #655946) plate at a cell density of 12,000 cells per cm^2 (4,000 cells per well) in 100 μl of Assay Medium (Low Glucose medium is used to reduce basal levels of GlcNAcylation) (Park et al. 2014 The Journal of biological chemistry 289:13519). At the day of compound test medium from assay plates was removed and replenished with 90 μl of fresh Assay Medium. 10 μl of compounds at a 10 fold final concentration were added to the wells. Plates were centrifuged shortly before incubation in the cell incubator for 6 hours. DMSO concentration was set to 0.2%. Medium is discarded by applying vacuum. For staining of cells medium was removed and cells washed once with 100 μl D-PBS (Sigma, #D8537). From next step onwards unless other stated assay volume was always 50 μl and incubation was performed without agitation and at room temperature. Cells were fixed in 50 μl of a 4% paraformaldehyde (PFA, Alpha aesar, #043368) PBS solution for 15 minutes at room temperature. […] Before analysis samples were washed 2 times manually for 5 minutes in ICC base buffer.
Imaging is performed using Perkin Elmer Phenix Opera using a water 20× objective and recording 9 fields per well. Intensity readout at 488 nm is used as a measure of O-GlcNAcylation level of total proteins in wells. To assess potential toxicity of compounds nuclei were counted using the Hoechst staining. IC50-values are calculated using parametric non-linear regression model fitting. As a maximum inhibition Thiamet G at a 200 uM concentration is present on each plate. In addition, a concentration response of Thiamet G is calculated on each plate.

In experiment [2] the target is T2, recombinant human Meningioma Expressed Antigen 5 (MGEA5), also referred to as O-GlcNAcase (OGA) (Homo sapiens, UniProt O60502).
T2 construct: Full length OGA enzyme was purchased at OnGene (cat #TP322411); purchased OnGene (so in the source)
T2 sequence (O60502 1-916): T1 sequence (O60502 1-916)
Put plainly: OGA biochemical assay (inhibition of FM-GlcNAc hydrolysis, fluorescence). Particulars: for Emax / Enzymatic Emax (%): maximal effect; for Emax: read-out: Enzymatic Emax (%); for IC50: read-out: Enzymatic hOGA, pIC50 (converted). In outline: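 Full-length recombinant OGA (2 nM) pre-incubated with compound 60 min at room temperature, then FM-GlcNAc (100 µM final) added in citrate/phosphate buffer pH 7.2 with 0.005% Tween-20. After 6 h at room temperature, stopped with carbonate pH 11.0; fluorescein read at 485/538 nm; IC50 and Hill coefficient from curve fit.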

As for `COc1cc(C[C@H]2CCCN([C@H](C)c3ccc4c(n3)OCCO4)C2)cc(C)n1` [Product 64], in experiment [1], the Emax turned out to be 97% and the EC50 was 15.8 nM. Further, in experiment [2], the Emax was 101% and the IC50 was 3.98 nM.
On to `Cc1cc(NC[C@H]2CCCN(C(C)c3nc4c(cc3F)OCCO4)C2)cc(C)n1` (stereo partly shown) [Product 181], for which, in experiment [1], the Emax was determined as 92% and the EC50 was 1.58 nM. Also, in experiment [2], the Emax stood at 101% and the IC50 is 3.98 nM.
As to `Cc1cc(C[C@H]2CCCN(C(C)c3cc4c(cc3F)OCCO4)C2)cc(C)n1` (single isomer, unassigned) [Product 42], in experiment [1], the Emax was 86% and the EC50 is 6.31 nM. In experiment [2], the Emax was determined as 99% and the IC50 was 2 nM.
For the compound `Cc1cc(OC[C@H]2CCCN([C@@H](C)c3ccc4c(n3)OCCO4)C2)cc(C)n1` (single isomer, unassigned) [Product 140], in experiment [1], the Emax turned out to be 2% and the EC50 is more than 1000 nM. In experiment [2], the Emax was determined as 72% and the IC50 is 3980 nM.
`Cc1cc(OC[C@@H]2CCCN([C@H](C)c3ccc4c(n3)OCCO4)C2)cc(C)n1` (relative stereo) [Product 109]: in experiment [1], the Emax was found to be 37% and the EC50 is more than 1000 nM. In experiment [2], the Emax was 95% and the IC50 was 251 nM.
With `Cc1cc(OC[C@H]2CCCN(C(C)c3nc4c(cc3F)CCO4)C2)cc(C)n1` (single isomer, unassigned) [Product 180], in experiment [1], the EC50 is 1 nM and the “Cellular Emax (%)” value is listed as 79%. Also, in experiment [2], the “Enzymatic Emax (%)” value is 99% and the IC50 is 1.58 nM.
Regarding `COc1cc(NC[C@H]2CCCN(C(C)c3ccc4c(n3)OCCO4)C2)cc(C)n1` (single isomer, unassigned) [Product 26], in experiment [1], the Emax worked out at 85% and the EC50 is 5.01 nM. In experiment [2], the “Enzymatic Emax (%)” value came to 101% and the IC50 was 2.51 nM.
On to `COC1CCN(C(C)c2ccc3c(n2)OCCO3)CC1Cc1cc(C)nc(C)c1` (stereo not shown) [Product 172], for which, in experiment [1], the Emax was determined as 78% and the EC50 was 126 nM. In addition, in experiment [2], the Emax turned out to be 99% and the IC50 is 39.8 nM.
Take `Cc1cc([C@H]2CCCN([C@H](C)c3ccc4c(n3)OCCO4)C2)cc(C)n1` (single isomer, unassigned) [Product 158]: in experiment [1], the Emax was 89% and the EC50 was 39.8 nM. In experiment [2], the Emax was 102% and the IC50 was 7.94 nM.
On to `Cc1cc([C@@H]2CCCN([C@@H](C)c3ccc4c(n3)OCCO4)C2)cc(C)n1` (single isomer, unassigned) [Product 161], for which, in experiment [1], the Emax was -4% and the EC50 was more than 1000 nM. Further, in experiment [2], the Emax is 79% and the IC50 was 3160 nM.
Consider `COc1cc(C2CCCN(C(C)c3ccc4c(n3)OCCO4)C2)cc(C(F)(F)F)n1` (stereo not shown) [Product 10], for which, in experiment [1], the Emax was 52% and the EC50 is 977 nM. In experiment [2], the Emax was 100% and the IC50 was 25.1 nM.
Take `Cc1cc(C2CCCN(C(C)c3nc4c(cc3F)OCCO4)C2)c(F)c(C)n1` (stereo not shown) [Product 189]: in experiment [1], the Emax was determined as 88% and the EC50 is 15.8 nM. In experiment [2], the Emax came out at 100% and the IC50 was 7.94 nM.
In the case of `Cc1cc(CO[C@H]2CCCN(C(C)c3nc4c(cc3F)OCCO4)C2)cc(C)n1` (single isomer, unassigned) [Product 170], in experiment [1], the EC50 is 12.6 nM and the “Cellular Emax (%)” value is reported as 79%. Further, in experiment [2], the “Enzymatic Emax (%)” value is 98% and the IC50 is 3.16 nM.
Regarding `Cc1cc(CC2(F)CCCN([C@@H](C)c3nc4c(cc3F)OCCO4)C2)cc(C)n1` (single isomer, unassigned) [Product 175], in experiment [1], the Emax was 1% and the EC50 is more than 1000 nM. Further, in experiment [2], the Emax was determined as 92% and the IC50 is 1000 nM.
`Cc1cc(C2CCCN(C(C)c3cc4c(cc3F)OCCO4)C2)cc(C(F)(F)F)n1` (stereo not shown) [Product 9]: in experiment [1], the Emax came to 92% and the EC50 is 50.1 nM. In addition, in experiment [2], the Emax is 102% and the IC50 was 10 nM.
For the compound `Cc1cc(CO[C@H]2CCCN(C(C)c3ccc4c(n3)OCCO4)C2)cc(C)n1` (single isomer, unassigned) [Product 167], in experiment [1], the EC50 is more than 1000 nM and the “Cellular Emax (%)” value was 26%. Besides, in experiment [2], the “Enzymatic Emax (%)” value stood at 97% and the IC50 was 158 nM.
With `Cc1cc(OC[C@H]2CCCN(C(C)c3cnc4c(c3)OCCN4)C2)cc(C)n1` (stereo partly shown) [Product 146], in experiment [1], the Emax is 79% and the EC50 is 10 nM. For the same compound, in experiment [2], the Emax was determined as 99% and the IC50 is 6.31 nM.
Take `Cc1cc(NCC2CCCN(C(C)c3ccc4c(n3)OCCO4)C2)cc(C(F)(F)F)n1` (single isomer, unassigned) [Product 33]: in experiment [1], the Emax was determined as 83% and the EC50 was 31.6 nM. Also, in experiment [2], the Emax was determined as 102% and the IC50 is 2.51 nM.
On to `Cc1cc(OC[C@@H]2CCCN([C@@H](C)c3ccc4c(n3)OCCO4)C2)cc(C)n1` (relative stereo) [Product 108], for which, in experiment [1], the Emax is -8% and the EC50 is more than 1000 nM. Besides, in experiment [2], the Emax turned out to be 37% and the IC50 is more than 10000 nM.
Regarding `Cc1cc(C[C@H]2CCCN(C(C)c3cnc4c(c3)OCCN4)C2)cc(C)n1` (mixture of isomers) [Product 50], in experiment [1], the Emax worked out at 85% and the EC50 is 39.8 nM. Moreover, in experiment [2], the Emax was 103% and the IC50 was 10 nM.
On to `COc1cc(NCC2CCCN(C(C)c3ccc4c(c3)OCC4)C2)cc(C)n1` (stereo not shown) [Product 30], for which, in experiment [1], the Emax amounted to 81% and the EC50 is 6.31 nM. In experiment [2], the Emax was determined as 104% and the IC50 was 7.94 nM.
With `Cc1cc(OC[C@H]2CCCN([C@H](C)c3ccc4c(n3)OCCO4)C2)nc(C)n1` (mixture of isomers) [Product 114], in experiment [1], the Emax is 66% and the EC50 was 158 nM. Further, in experiment [2], the Emax worked out at 100% and the IC50 is 15.8 nM.

One may read the Emax as the greatest response seen or fitted, relative to the assay's reference.
